The structures appear in SMILES notation. pIC50: −log10 of the molar value.

In assay [1] the target is T1, human Nav1.5 channels stably expressed in HEK 293 cells (Homo sapiens, UniProt Q14524).
T1 construct: expressed in transfected cells
Kind of assay: PatchXpress 7000 automated patch-clamp, sodium current. In kind it is cell-based. The settings on record: selectivity over Nav1.5. An excerpt:
(§1) To measure state and use-dependent sodium channel inhibition, test compounds were further characterized in an automated PatchXpress® assay (Molecular Devices). Two voltage-clamp protocols were used. 1) Use-dependent protocol: Cells were held at a membrane potential 20 mV negative to the potential at which ˜50% of the channels are inactivated (V0.5 inact). A train of 30 ms depolarizations to −20 mV was applied to the cells expressing Nav1.7 at a frequency of 10 Hz. […] Data was collected in the absence and presence of drug, and after drug washout. 2) A double-pulse protocol was used to measure inactivated state block. Cells were held at a potential 20 mV negative to V0.5 inact. A 8000 ms pre-pulse 7 mV positive to V0.5 inact was given followed by a hyperpolarizing 2 ms pulse to −120 mV and a 20 ms test pulse to −20 mV. Protocol was applied to cells in the absence, presence of compound and after washout. The temperature of PatchXpress instruments was maintained at 22° C. The following recording solutions were used. Internal solution (mM): 30 CsCl, 5 HEPES, 10 EGTA, 120 CsF, 5 NaF, 2MgCl2, pH=7.3 with CsOH, 324 mosmo. External solution (mM): 120 NMDG, 40 NaCl, 1 KCl, 0.5 MgCl2, 5 HEPES, 2.7 CaCl2, pH=7.5 with NMDG-OH.
(§2) For all electrophysiology experiments, offline analysis was used to correct for current rundown and to determine percent inhibition as a function of drug concentration. IC50 values were determined by fitting to the Hill equation.

In assay [2] the target is T2, human Nav1.7 channels stably expressed in HEK 293 cells (Homo sapiens, UniProt Q15858).
T2 construct: expressed in transfected cells
T2 sequence (Q15858 whole entry): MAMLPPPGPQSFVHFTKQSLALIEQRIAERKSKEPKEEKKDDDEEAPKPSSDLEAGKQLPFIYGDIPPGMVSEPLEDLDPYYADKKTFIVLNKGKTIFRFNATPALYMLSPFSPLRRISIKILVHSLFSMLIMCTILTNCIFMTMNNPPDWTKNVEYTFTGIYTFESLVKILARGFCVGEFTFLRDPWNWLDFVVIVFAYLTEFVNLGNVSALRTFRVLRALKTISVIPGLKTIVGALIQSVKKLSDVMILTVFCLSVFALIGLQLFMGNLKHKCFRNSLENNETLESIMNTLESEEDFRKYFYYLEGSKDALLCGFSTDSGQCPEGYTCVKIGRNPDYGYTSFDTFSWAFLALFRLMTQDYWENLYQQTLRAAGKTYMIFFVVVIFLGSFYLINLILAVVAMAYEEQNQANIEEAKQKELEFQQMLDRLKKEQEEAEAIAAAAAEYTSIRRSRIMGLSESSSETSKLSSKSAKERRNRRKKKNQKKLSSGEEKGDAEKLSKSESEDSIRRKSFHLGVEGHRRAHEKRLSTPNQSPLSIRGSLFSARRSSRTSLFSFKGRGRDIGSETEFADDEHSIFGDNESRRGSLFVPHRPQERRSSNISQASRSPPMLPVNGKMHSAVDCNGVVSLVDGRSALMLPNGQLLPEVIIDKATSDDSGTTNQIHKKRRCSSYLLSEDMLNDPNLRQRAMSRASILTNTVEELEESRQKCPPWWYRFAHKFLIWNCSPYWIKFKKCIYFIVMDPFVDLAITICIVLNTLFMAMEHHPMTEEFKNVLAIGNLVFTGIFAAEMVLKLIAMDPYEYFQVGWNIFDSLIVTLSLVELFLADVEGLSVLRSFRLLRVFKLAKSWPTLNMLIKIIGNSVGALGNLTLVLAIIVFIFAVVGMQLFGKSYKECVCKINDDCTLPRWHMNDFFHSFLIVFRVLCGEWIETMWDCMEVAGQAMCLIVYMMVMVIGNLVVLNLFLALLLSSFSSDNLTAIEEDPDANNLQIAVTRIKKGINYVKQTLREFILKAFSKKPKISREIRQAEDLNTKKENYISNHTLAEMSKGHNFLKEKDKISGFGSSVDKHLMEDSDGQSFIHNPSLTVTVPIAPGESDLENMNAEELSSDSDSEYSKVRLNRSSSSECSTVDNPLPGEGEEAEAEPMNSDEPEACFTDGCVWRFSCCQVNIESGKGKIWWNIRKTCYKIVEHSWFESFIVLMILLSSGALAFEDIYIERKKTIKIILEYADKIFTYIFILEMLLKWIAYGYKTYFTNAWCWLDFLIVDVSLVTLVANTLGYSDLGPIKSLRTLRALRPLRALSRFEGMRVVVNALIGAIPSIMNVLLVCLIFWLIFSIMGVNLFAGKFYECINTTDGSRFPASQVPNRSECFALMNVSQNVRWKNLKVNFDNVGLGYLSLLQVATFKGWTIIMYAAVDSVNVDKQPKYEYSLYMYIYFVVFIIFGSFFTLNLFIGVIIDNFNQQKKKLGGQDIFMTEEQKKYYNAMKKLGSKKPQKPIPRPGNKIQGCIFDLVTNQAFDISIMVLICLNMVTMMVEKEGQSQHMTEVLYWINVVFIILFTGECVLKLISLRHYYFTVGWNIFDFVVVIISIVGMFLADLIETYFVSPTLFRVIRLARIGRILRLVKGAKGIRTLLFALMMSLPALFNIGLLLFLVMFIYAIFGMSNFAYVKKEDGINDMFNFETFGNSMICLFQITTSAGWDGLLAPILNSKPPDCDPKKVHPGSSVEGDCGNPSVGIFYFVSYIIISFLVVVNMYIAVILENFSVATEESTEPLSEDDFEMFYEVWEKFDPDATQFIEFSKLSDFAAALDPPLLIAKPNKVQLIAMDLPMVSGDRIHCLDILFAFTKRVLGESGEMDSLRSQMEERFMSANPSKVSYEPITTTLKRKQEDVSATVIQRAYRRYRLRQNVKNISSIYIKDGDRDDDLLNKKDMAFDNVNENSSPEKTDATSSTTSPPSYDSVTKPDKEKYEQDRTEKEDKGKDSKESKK
The description is as above. In kind it is cell-based. Conditions: 22° C., read-out: potency for the Nav 1.7 sodium ion channel (as measured by PatchXpress).
From the text: as §1, §2

T1 sequence (Q14524 whole entry): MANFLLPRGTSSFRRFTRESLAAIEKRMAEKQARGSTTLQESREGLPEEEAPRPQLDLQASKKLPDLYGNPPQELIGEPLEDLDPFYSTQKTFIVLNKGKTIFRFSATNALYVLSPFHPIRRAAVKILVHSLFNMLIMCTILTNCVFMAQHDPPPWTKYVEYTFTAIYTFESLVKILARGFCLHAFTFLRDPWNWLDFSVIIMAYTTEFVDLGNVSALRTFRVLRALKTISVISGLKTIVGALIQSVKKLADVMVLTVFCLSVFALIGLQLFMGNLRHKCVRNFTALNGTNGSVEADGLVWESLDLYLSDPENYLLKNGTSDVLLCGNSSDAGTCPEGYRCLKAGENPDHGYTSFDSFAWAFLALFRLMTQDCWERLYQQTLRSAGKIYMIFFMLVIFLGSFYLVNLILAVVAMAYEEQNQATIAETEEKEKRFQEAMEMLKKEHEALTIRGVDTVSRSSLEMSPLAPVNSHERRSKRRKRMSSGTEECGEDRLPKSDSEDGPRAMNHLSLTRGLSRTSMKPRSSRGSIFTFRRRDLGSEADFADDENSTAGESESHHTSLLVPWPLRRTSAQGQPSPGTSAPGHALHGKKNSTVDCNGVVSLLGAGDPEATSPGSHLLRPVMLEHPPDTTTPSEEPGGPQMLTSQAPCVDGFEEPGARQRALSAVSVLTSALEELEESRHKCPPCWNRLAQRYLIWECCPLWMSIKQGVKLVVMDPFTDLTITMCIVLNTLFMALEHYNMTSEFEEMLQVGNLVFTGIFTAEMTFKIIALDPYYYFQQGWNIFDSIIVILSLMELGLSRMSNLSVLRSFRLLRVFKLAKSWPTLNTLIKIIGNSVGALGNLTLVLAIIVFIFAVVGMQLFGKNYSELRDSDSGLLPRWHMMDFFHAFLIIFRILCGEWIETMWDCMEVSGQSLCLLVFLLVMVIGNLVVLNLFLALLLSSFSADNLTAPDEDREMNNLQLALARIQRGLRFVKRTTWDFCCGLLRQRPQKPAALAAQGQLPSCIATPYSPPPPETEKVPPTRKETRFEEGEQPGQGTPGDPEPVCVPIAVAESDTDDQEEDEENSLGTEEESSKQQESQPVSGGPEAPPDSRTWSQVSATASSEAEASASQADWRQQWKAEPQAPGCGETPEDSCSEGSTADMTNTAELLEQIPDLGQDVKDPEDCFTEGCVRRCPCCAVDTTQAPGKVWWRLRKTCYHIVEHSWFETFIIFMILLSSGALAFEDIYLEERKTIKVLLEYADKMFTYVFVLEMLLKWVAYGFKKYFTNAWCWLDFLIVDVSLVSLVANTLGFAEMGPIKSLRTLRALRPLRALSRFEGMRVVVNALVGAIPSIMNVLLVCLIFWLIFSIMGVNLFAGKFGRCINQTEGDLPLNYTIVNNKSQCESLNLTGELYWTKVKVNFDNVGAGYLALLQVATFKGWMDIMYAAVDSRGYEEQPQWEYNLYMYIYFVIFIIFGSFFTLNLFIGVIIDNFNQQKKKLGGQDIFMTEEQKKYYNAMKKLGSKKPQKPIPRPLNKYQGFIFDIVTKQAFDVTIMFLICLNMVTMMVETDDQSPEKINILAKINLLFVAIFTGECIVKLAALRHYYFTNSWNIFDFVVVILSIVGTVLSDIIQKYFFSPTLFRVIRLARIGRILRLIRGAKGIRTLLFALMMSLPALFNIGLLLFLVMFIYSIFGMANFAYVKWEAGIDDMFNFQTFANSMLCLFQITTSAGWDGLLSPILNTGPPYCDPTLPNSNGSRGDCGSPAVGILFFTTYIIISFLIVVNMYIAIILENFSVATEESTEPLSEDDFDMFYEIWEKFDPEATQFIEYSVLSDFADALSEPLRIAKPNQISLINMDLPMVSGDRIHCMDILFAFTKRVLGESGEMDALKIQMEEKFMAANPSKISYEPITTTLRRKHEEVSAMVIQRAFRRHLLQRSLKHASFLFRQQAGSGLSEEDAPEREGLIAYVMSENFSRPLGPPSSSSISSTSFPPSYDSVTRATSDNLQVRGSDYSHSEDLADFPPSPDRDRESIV

Consider `NC1CCc2cccc(Cn3c(=O)oc4cc(S(=O)(=O)Nc5ncns5)c(F)cc43)c2C1` (racemic) [Compound 20-4, 3-((7-amino-5,6,7,8-tetrahydronaphthalen-1-yl)methyl)-5-fluoro-2-oxo-N-(1,2,4-thiadiazol-5-yl)-2,3-dihydrobenzo[d]oxazole-6-sulfonamide], for which the “ratio of Nav 1.5:Nav 1.7 potency, determined by PatchXpress measurement” value (“ratio of Nav 1.5:Nav 1.7 potency” below) in assay [1] worked out at 167. In addition, the pIC50 in assay [2] was 6.75.

Turning to `NC1CCc2c(cccc2Cn2c(=O)oc3cc(S(=O)(=O)Nc4ncns4)ccc32)C1` (racemic) [Compound 23-3, (+/−)-3-[(6-amino-5,6,7,8-tetrahydronaphthalen-1-yl)methyl]-2-oxo-N-1,2,4-thiadiazol-5-yl-2,3-dihydro-1,3-benzoxazole-6-sulfonamide], in assay [1], the “ratio of Nav 1.5:Nav 1.7 potency” value came out at 88. Also, the pIC50 in assay [2] was 6.47.

With `O=c1oc2cc(S(=O)(=O)Nc3ncns3)c(F)cc2n1Cc1cccc2c1CC(N1CCC(F)(F)C1)CC2` (racemic) [Compound 23-5, (+/−)-3-{[7-(3,3-difluoropyrrolidin-1-yl)-5,6,7,8-tetrahydronaphthalen-1-yl]methyl}-5-fluoro-2-oxo-N-1,2,4-thiadiazol-5-yl-2,3-dihydro-1,3-benzoxazole-6-sulfonamide], the “ratio of Nav 1.5:Nav 1.7 potency” value in assay [1] was 78. In assay [2], the pIC50 was 6.56.

With `O=c1oc2cc(S(=O)(=O)Nc3ncns3)c(F)cc2n1Cc1cccc2c1CC(NCC(F)(F)F)CC2` (racemic) [Compound 23-7, (+/−)-5-fluoro-2-oxo-N-1,2,4-thiadiazol-5-yl-3-({7-[(2,2,2-trifluoroethyl)amino]-5,6,7,8-tetrahydronaphthalen-1-yl}methyl)-2,3-dihydro-1,3-benzoxazole-6-sulfonamide], the “ratio of Nav 1.5:Nav 1.7 potency” value in assay [1] was found to be 146. In addition, in assay [2], the pIC50 is 6.69.

`NC1CCc2c(cccc2Cn2c(=O)oc3cc(S(=O)(=O)Nc4ncns4)c(F)cc32)C1` (racemic) [Compound 23-8, (+/−)-3-[(6-amino-5,6,7,8-tetrahydronaphthalen-1-yl)methyl]-5-fluoro-2-oxo-N-1,2,4-thiadiazol-5-yl-2,3-dihydro-1,3-benzoxazole-6-sulfonamide]: in assay [1], the “ratio of Nav 1.5:Nav 1.7 potency” value was 161. Besides, the pIC50 in assay [2] was 6.73.

For the compound `NC1Cc2cccc(Cn3c(=O)oc4cc(S(=O)(=O)Nc5ncns5)ccc43)c2C1` (racemic) [Compound 23-9, (+/−)-3-[(2-amino-2,3-dihydro-1H-inden-4-yl)methyl]-2-oxo-N-1,2,4-thiadiazol-5-yl-2,3-dihydro-1,3-benzoxazole-6-sulfonamide], in assay [1], the “ratio of Nav 1.5:Nav 1.7 potency” value turned out to be 167. In assay [2], the pIC50 was 6.74.

As to `O=c1oc2cc(S(=O)(=O)Nc3ncns3)c(F)cc2n1Cc1cccc2c1CC(N1CCCC1C(F)(F)F)CC2` (racemic) [Compound 23-11, (+/−)-5-fluoro-2-oxo-N-1,2,4-thiadiazol-5-yl-3-({7-[2-(trifluoromethyl)pyrrolidin-1-yl]-5,6,7,8-tetrahydronaphthalen-1-yl}methyl)-2,3-dihydro-1,3-benzoxazole-6-sulfonamide], the “ratio of Nav 1.5:Nav 1.7 potency” value in assay [1] is recorded as 73. Also, the pIC50 in assay [2] is 6.94.

Consider `CC(c1cccc2c1CC(N1CC(F)(F)C1)CC2)n1c(=O)oc2cc(S(=O)(=O)Nc3ncns3)c(F)cc21` (racemic) [Compound 23-12, (+/−)-3-{1-[7-(3,3-difluoroazetidin-1-yl)-5,6,7,8-tetrahydronaphthalen-1-yl]ethyl}-5-fluoro-2-oxo-N-1,2,4-thiadiazol-5-yl-2,3-dihydro-1,3-benzoxazole-6-sulfonamide], for which the “ratio of Nav 1.5:Nav 1.7 potency” value in assay [1] amounted to 46. Also, the pIC50 in assay [2] is 6.96.

(Values after patent US9273040B2 (Merck Sharp & Dohme Corp., priority 2011, dated 2016).)
